According to paper PMC9983021, “Novel GluN2B-Selective NMDA Receptor Negative Allosteric Modulator Possesses Intrinsic Analgesic Properties and Enhances Analgesia of Morphine in a Rodent Tail Flick Pain Model” (ACS Chemical Neuroscience, 2023):

Columns and labels:
GABAA = test: Radioligand binding assay (NIMH PDSP); set-up: species or system human; details: primary screen, 10 µM, quadruplicate
Method: (§1) Conventional competition and saturation radioligand binding assays were used to determine the affinities of reference standards and EU93-108. Experiments were carried out by the NIMH Psychoactive Drug Screening Program (PDSP) and were performed as previously described.[123]
(§2) The detailed experimental protocols for the radioligand assays are available on the NIMH PDSP website at https://pdsp.unc.edu/pdspweb/content/UNC-CH%20Protocol%20Book.pdf.
(§3) Receptor Mean % Receptor Mean % Receptor Mean %
(§4) Inhibition Inhibition Inhibition
(§5) Supplemental Table S4. Off-Target Actions of EU93-108: Primary GPCR Screen. Cloned human molecular targets were individually expressed and submitted to molecular target-based screening with initial screens performed at a final concentration of 10 µM in quadruplicate. Complete protocols for the assays have been previously published (Besnard J et al. 2012). Where inhibition greater than 50% was measured, secondary screens were performed wherein Ki values were calculated (see Table 4).

PBR = test: Radioligand binding assay (NIMH PDSP); set-up: species or system human; details: primary screen, 10 µM, quadruplicate
Method: as §1, §2, §3, §4, §5

C57BL/6J mice = test: Preestablished morphine tolerance (tolerant mice, tail immersion test); assay type: in vivo; details: males 10 mg/kg, females 20 mg/kg i.p.
Source text: We next wanted to assess EU93-108 for effects on other facets of tolerance. Specifically, we were interested in whether EU93-108 could increase tail flick latency in mice that were already tolerant to morphine (i.e., preestablished tolerance). To assess the effect of EU93-108 on preestablished tolerance, five groups were used (n = 8 per group): vehicle/saline, vehicle/morphine, ifenprodil/morphine, EU93-108/saline, and EU93-108/morphine. All groups except for the vehicle/saline control group were administered morphine three times per day (according to the stair stepping protocol outlined in Figure 11) at gradually increasing doses from 25 to 40 mg/kg three times a day at 3–4 h intervals for three consecutive days until tolerance was observed on day 4 (Figure 12, black circles).
Figure 11 Dosing regimen to assess effects of EU93-108 on tolerant mice. TIT = tail immersion test. All mice received morphine or saline three times a day according to the protocol in Figure 9. Doses of morphine are shown above the arrows, in mg/kg. Once tolerance was established on day 4, the mice were randomly assigned to receive vehicle, EU93-108, or ifenprodil once a day for two consecutive days. […]
Mouse weights were recorded on the day of each experiment. […] Three recordings were taken for each mouse, and each data point is expressed as the mean of the three recordings. […] The identities were not decoded until the data were analyzed.
Prism 9.3.1 software (GraphPad, San Diego, CA) was used for all data analysis and visualization. Data for intrinsic antinociception was analyzed using one-way ANOVA and Dunnett’s post hoc test for multiple comparisons where each group was compared to vehicle. Data for acute morphine potentiation experiments were analyzed using one-way ANOVA and Tukey’s post hoc test for multiple comparisons was also used, where each group mean was compared to the mean of every other group. Data for tolerance experiments were analyzed using repeated measures two-way ANOVA and Bonferroni post hoc analysis. […]

[1] = molecular target: diheteromeric human GluN1/GluN2B/GluN2B (h2B/h2B) (Homo sapiens, UniProt Q05586+Q13224); test: Concentration-inhibition curves, oocytes
diheteromeric human GluN1/GluN2B/GluN2B (h2B/h2B), sequence (Q13224 27-1484, other chains not shown): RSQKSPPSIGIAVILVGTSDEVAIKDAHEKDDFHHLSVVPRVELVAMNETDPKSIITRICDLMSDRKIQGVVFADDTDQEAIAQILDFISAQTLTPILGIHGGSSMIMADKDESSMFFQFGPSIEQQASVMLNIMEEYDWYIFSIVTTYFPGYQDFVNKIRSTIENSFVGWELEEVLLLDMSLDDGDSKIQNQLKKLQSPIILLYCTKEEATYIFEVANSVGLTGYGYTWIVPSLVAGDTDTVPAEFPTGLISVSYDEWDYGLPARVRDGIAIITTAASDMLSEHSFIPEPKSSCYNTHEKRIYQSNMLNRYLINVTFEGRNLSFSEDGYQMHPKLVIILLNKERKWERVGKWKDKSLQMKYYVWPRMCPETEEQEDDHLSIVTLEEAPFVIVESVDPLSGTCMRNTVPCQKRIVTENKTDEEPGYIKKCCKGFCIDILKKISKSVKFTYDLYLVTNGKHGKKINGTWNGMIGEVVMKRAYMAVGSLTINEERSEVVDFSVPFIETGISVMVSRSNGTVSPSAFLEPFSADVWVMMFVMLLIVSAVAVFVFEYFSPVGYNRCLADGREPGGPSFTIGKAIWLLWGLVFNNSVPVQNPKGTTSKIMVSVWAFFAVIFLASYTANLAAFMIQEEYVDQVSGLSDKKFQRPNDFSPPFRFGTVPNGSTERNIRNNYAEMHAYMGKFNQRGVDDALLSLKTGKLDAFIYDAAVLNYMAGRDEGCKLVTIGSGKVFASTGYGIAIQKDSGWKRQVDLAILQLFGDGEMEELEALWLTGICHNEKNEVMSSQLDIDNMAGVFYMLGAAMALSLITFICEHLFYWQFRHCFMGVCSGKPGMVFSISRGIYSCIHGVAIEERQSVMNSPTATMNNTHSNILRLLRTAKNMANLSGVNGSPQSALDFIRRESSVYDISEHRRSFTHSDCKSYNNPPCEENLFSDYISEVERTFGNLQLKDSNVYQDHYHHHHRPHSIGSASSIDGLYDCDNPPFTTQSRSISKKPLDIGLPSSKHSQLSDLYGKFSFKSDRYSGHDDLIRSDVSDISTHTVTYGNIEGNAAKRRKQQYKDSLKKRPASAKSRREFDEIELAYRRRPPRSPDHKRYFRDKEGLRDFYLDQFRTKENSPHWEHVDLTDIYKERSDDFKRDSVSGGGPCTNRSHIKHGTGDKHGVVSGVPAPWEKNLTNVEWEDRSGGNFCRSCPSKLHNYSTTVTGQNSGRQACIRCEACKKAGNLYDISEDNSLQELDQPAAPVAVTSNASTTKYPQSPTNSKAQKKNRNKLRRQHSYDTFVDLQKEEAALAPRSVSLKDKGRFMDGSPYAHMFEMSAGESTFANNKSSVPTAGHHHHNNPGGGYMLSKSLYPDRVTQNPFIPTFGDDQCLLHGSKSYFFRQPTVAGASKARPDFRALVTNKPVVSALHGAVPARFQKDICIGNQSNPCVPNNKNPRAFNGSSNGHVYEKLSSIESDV

CS(=O)(=O)Nc1ccc(OC[C@@H](O)CN2CCN(c3ccc(F)c(F)c3)CC2)cc1 [EU93-108, (S)-N-(4-(3-(4-(3,4-Difluorophenyl)piperazin-1-yl)-2-hydroxypropoxy)phenyl)methanesulfonamide]
Mean % Inhibition (GABAA): 1.91%
Mean % Inhibition (PBR): -0.34%
tail flick latency in morphine-tolerant mice, day 5 vs day 4 (C57BL/6J mice; co-administered with morphine): did not show a further decrease in latency on day 5
tail flick latency in morphine-tolerant mice, day 5 vs day 4 (C57BL/6J mice; given with saline (no morphine)): most significant decrease in latency
IC50 [1]: 261 nM
residual current remaining at 10 μM EU93-108 ([1]; 10 μM, % of maximal response, n = 10): 12%
nH ([1]; Hill slope factor of the inhibition curve, Table S1): -1.16
Ymin ([1]; residual response, Table S1, N = 10): 12.0
